Target: T1, human TAS1R2-C9S (subunit alone) (Homo sapiens, UniProt Q8TE23)
T1 construct: expressed in transfected cells; host or cells: HEK293T-Gα16gust44
T1 sequence (Q8TE23 20-839): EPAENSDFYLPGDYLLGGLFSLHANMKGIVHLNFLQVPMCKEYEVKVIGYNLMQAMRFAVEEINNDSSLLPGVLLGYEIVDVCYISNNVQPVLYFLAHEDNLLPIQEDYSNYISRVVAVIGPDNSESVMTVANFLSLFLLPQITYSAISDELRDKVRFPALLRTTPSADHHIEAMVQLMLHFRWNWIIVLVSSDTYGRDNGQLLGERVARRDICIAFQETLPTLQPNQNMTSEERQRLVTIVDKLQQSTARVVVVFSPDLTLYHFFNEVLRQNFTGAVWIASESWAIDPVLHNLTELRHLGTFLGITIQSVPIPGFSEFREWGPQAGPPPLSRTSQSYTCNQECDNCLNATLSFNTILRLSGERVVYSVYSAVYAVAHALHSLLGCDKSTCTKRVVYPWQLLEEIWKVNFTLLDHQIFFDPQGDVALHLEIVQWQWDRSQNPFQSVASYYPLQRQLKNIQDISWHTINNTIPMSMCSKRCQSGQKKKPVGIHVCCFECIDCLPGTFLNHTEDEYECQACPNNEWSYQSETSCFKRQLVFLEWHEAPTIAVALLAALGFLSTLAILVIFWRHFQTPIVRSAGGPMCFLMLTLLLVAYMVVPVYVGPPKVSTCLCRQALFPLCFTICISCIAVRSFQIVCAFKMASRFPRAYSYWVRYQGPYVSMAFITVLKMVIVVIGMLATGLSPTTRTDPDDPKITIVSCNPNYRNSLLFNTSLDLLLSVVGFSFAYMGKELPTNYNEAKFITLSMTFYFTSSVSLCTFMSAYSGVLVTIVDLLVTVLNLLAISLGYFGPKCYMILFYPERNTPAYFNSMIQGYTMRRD
Experiment: Calcium mobilisation assay, TAS1R2-C9S subunit alone
Type: cell-based
Text: The coding sequences for TAS1R2 and TAS1R3 were commercially synthesised, and the human codon was optimised for expression in human cells. The coding sequences of human TAS1R2 and TAS1R3 were subcloned and inserted into the mammalian expression vectors pcDNA6/myc-HisA and pcDNA4/myc-HisA (Invitrogen; Thermo Fisher Scientific; Illkirch, France) between the EcoRI and NotI restriction sites, generating the plasmids pcDNA6-TAS1R2 and pcDNA4-TAS1R3, respectively. To increase protein expression in mammalian cells, an upstream start codon was used, which was a sequence called MAX, corresponding to the QBI SP163 element also described in pcDNA4-HisMax (Invitrogen; Thermo Fisher Scientific; Illkirch, France). To measure the expression level of the receptor by immunohistochemistry, we used the FLAG sequence ([…]) in the C-terminal position, which encodes the FLAG tag epitope. […]
The HEK293T cells were kindly provided by Jay P. Slack (Givaudan Flavors Corporation; Cincinnati, OH, USA). […] The fluorescence intensity was measured for 90 s (excitation 488 nm, emission 510 nm) in an automated fluorometric FlexStation®3 Multi-Mode microplate reader (Molecular Devices; San Jose, CA, USA). […] The Ca^2+ changes were expressed as fractional changes in fluorescent light intensity: ΔF/F = (F − F0)/F0, where F was the fluorescent light intensity at each point, and F0 was the value of emitted fluorescent light prior to stimulus application. To calculate dose–response relationships, the changes in fluorescence upon stimulus application were averaged, mock-subtracted and baseline-corrected. […] The half-maximal effective concentrations (EC50 values) and maximal signal amplitudes were calculated using SigmaPlot software (version 15.0) (Systat Software; San Jose, CA, USA).
For in vitro calcium mobilisation assay performed on hTAS1R2-SNPs, hTAS1R3-SNPs and mTAS1R3-I60T, 6 to 7 concentrations were tested for each sweet compound, plus buffer alone. All concentration–receptor combinations were measured in duplicate, and each experiment was repeated at least 4 times (8 wells/concentration). […]

For `C=C(C)[C@@H]1CC=C(/C=N/O)CC1` [Perillartine, perillartine], which EC50 is on record?
Its EC50 is 190 ± 26.6 µM.

And the “R1 = Variant EC50/WT EC50” value?
Its value is 2.1.

What about the “Max ΔF/F0” value (maximal signal amplitude) of the same compound?
Its value is 0.44 ± 0.02.

Reference: PMC11945486, “TAS1R2/TAS1R3 Single-Nucleotide Polymorphisms Affect Sweet Taste Receptor Activation by Sweeteners: The SWEET Project” (Nutrients, 2025)
